Activity calls are given as the source filed them.
Assays:
[1] = biological target: Benomyl/methotrexate resistance protein (Candida albicans, UniProt P28873); test: Candida albicans Mdr1 pump inhibition curves – singleplex, Cherry Pick1 hits, dose response (AID 588608); type: functional
[2] = biological target: 26S proteasome non-ATPase regulatory subunit 14 (Homo sapiens, UniProt O00487); test: inhibition of proteasome subunit RPN11 – biochemical, fluorescence polarization, uHTS hits, confirmation (AID 602368); type: functional
Chain of 26S proteasome non-ATPase regulatory subunit 14 (O00487 whole entry): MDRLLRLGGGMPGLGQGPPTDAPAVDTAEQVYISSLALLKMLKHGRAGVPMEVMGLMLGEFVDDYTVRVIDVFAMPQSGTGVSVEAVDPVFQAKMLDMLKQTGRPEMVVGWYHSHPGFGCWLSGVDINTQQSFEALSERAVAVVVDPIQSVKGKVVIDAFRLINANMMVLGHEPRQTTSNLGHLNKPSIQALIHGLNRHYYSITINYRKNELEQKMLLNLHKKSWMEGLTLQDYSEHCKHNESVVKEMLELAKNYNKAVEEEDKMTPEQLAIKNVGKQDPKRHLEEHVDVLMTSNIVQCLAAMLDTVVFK

[3] = biological target: 72 kDa type IV collagenase (Homo sapiens, UniProt P08253); test: Dose Response validation of uHTS RPN11 inhibitor hits using a MMP-2 Fluorescence assay.; type: functional
Chain of 72 kDa type IV collagenase (P08253 whole entry): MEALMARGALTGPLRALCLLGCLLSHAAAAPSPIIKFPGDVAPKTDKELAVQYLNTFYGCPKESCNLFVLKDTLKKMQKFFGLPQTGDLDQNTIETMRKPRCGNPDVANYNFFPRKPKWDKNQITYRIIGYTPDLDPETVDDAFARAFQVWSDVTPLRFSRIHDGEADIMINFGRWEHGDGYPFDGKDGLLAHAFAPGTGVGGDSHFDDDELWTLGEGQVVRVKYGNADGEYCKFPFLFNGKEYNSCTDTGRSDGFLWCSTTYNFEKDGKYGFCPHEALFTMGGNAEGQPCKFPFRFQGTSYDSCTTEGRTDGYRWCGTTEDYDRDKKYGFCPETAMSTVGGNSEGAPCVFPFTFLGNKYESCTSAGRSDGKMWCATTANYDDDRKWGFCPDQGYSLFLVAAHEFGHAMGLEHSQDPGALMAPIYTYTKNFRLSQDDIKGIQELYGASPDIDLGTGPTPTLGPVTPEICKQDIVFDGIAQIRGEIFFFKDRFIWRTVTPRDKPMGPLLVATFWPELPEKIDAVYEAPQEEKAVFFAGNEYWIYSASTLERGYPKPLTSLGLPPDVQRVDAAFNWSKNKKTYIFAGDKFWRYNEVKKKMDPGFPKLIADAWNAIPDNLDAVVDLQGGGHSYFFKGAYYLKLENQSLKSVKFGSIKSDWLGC

Prothrombin = Prothrombin (Bos taurus, UniProt P00735); test: thrombin protease inhibitors – biochemical, fluorescence polarization, uHTS hits, dose response (AID 602369); type: functional
[4] = biological target: T1, Heat shock factor protein 1 (Mus musculus, UniProt P38532); test: enhancement of HSF1-driven luciferase signal – cell-based, NIH3T3, luminescence, dose retest, confirmation (AID 435004); type: functional;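 note: stress induced by proteasome inhibitor MG132 added 30 min after compound; luciferase reporter driven by HSF1 response element in NIH3T3 cells; actives raise luminescence as potentiators of the MG132 stress response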
T1 sequence (P38532 whole entry): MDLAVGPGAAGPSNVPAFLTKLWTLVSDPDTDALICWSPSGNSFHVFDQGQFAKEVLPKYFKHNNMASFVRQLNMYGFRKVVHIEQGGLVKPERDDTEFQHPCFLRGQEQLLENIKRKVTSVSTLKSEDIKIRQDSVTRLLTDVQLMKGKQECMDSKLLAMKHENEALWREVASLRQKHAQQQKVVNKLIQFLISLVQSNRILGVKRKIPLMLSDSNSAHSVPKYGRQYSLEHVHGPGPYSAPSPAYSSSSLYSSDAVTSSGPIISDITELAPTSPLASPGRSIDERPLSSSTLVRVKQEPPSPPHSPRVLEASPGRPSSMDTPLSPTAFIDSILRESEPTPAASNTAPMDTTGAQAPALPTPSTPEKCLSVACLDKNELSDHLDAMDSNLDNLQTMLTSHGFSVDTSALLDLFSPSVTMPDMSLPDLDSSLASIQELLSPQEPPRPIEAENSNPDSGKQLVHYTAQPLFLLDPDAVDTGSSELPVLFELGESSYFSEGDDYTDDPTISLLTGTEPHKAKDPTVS

[5] = biological target: T2, Sentrin-specific protease 1 (Homo sapiens, UniProt Q9P0U3); test: SENP1 catalytic domain blockers, concentration series – biochemical, kinetic FRET, dose response (AID 651697); type: functional; conditions: read-out: IC50_Mean
T2 sequence (Q9P0U3 whole entry, the tested form may be a part): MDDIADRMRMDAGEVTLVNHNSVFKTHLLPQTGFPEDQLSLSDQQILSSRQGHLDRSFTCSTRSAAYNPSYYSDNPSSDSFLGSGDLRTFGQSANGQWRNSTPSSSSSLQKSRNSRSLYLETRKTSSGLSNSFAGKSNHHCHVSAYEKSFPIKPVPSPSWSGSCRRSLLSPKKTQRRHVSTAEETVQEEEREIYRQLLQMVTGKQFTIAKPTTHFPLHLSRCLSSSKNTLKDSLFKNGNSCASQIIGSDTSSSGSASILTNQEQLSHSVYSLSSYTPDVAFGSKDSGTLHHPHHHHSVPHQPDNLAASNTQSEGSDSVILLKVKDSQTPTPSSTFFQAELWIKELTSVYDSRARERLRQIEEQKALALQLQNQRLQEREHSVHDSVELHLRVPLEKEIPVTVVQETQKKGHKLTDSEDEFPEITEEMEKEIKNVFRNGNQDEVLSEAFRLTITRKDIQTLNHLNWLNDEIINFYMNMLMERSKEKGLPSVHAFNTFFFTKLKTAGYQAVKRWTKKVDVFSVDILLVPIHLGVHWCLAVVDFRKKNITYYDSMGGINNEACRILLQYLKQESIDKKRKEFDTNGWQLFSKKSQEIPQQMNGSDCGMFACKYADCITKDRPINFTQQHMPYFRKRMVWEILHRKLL

[6] = biological target: T2, Sentrin-specific protease 1; test: Dose response confirmation of small molecule inhibitors of the catalytic domain of the SUMO protease, SENP1 in a FRET assay.; type: functional; conditions: read-out: IC50_Mean
[7] = biological target: Nuclear receptor subfamily 5 group A member 2 (Homo sapiens, UniProt O00482); type: functional, cell-based;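 note: HEK293T cells transfected with LRH-1 and a StAR promoter luciferase reporter; potency for inhibitors that lower LRH-1 driven reporter light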
Chain of Nuclear receptor subfamily 5 group A member 2 (O00482 whole entry): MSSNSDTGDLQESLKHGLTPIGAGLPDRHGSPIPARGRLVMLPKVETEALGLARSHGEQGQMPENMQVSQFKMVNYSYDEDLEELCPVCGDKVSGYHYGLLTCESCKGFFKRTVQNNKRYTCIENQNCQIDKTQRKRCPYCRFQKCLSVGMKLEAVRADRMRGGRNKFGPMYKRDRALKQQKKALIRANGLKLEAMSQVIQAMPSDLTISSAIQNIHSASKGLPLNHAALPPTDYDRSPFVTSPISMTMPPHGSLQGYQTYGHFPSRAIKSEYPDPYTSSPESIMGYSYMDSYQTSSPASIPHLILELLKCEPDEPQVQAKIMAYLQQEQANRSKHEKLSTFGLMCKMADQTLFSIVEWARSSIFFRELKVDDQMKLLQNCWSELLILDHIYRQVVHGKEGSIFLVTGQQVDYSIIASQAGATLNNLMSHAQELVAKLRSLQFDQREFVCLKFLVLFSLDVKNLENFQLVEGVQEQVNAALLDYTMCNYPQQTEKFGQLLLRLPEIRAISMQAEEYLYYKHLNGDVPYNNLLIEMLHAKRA

Steroidogenic factor 1 = Steroidogenic factor 1 (Homo sapiens, UniProt Q13285); test: Counterscreen for inverse agonists of the liver receptor homolog-1 (LRH-1; NR5A2): Luminescence-based cell-based high throughput dose response assay to identify inverse agonists of the Steroidogenic Factor 1 Nuclear Receptor (SF1; NR5A1).; type: functional
[8] = nonselective StAR promoter luciferase inhibitors – cell-based, luminescence, luciferase reporter, counter-screen for LRH-1 inverse agonist project, dose response (AID 651969); type: functional
[9] = biological target: Low molecular weight phosphotyrosine protein phosphatase (Homo sapiens, UniProt P24666); type: functional; conditions: read-out: IC50_Mean;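 note: Dose-response confirmation assay measuring inhibition of LMPTP enzyme activity by fluorescence intensity read-out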
[10] = biological target: T3, Tyrosine-protein phosphatase non-receptor type 22 (Homo sapiens, UniProt Q9Y2R2); test: PTPN22 enzyme inhibitors – biochemical, fluorescence, LYP catalytic domain, selectivity assay for LMPTP inhibitor project, dose response (AID 652006); type: functional; conditions: read-out: IC50_Mean
T3 sequence (Q9Y2R2 whole entry): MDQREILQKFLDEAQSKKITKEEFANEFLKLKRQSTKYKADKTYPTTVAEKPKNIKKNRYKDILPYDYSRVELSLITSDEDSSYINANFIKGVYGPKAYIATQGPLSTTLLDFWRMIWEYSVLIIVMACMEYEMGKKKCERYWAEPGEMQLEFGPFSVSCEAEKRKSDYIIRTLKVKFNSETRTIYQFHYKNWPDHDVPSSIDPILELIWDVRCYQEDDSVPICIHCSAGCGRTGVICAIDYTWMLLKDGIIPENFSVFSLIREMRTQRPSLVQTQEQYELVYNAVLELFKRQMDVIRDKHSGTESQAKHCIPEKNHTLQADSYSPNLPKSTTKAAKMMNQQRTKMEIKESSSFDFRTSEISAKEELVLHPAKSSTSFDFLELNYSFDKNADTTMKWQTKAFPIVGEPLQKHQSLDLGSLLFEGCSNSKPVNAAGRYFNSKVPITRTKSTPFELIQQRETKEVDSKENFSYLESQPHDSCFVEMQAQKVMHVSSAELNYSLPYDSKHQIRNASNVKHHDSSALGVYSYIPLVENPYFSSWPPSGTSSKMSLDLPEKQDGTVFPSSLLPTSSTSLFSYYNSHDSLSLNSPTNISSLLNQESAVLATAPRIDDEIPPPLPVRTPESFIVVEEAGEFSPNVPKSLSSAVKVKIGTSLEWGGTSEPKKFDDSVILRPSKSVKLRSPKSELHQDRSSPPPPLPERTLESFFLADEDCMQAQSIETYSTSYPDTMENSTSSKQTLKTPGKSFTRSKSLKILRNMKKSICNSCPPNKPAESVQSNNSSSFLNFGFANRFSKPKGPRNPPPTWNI

[11] = biological target: Tyrosine-protein phosphatase non-receptor type 11 (Homo sapiens, UniProt Q06124); test: PTPN11 enzyme inhibitors – biochemical, selectivity assay for STEP inhibitor project, dose response (AID 602367); type: functional; conditions: read-out: IC50_Mean
[12] = biological target: Tyrosine-protein phosphatase non-receptor type 5 (Homo sapiens, UniProt P54829); test: PTPN5 enzyme inhibition – biochemical, fluorescence intensity, uHTS hits, confirmation (AID 602372); type: functional; conditions: read-out: IC50_Mean
[13] = biological target: Dual specificity protein phosphatase 3 (Homo sapiens, UniProt P51452); test: VHR phosphatase inhibition, dose response, selectivity assay for STEP inhibitor project, biochemical (AID 602374); type: functional; conditions: read-out: IC50_Mean
Chain of Dual specificity protein phosphatase 3 (P51452 whole entry): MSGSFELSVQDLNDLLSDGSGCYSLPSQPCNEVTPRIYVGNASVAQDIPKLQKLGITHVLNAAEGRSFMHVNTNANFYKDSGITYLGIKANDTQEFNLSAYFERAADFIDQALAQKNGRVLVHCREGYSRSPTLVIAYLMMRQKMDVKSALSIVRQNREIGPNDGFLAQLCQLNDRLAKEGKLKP

[14] = biological target: T4, Sentrin-specific protease 8 (Homo sapiens, UniProt Q96LD8); type: functional
T4 sequence (Q96LD8 whole entry): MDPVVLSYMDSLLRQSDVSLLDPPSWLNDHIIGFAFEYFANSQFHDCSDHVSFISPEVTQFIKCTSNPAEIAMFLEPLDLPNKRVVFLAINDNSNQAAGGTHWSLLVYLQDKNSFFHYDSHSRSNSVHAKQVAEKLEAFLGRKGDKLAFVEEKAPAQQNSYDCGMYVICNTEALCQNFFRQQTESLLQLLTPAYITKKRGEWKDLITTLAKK

[15] = biological target: T4, Sentrin-specific protease 8; type: functional; remark: listed apart in the source
INS1 = test: INS-1E survival protection against cytokine death – cell-based, luminescence, retest, dose response (AID 449756); type: functional; conditions: Rattus norvegicus;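 note: cell death triggered by IL-1 beta plus TNF-alpha plus IFN-gamma mixture; protective hits raise ATP signal compared with cytokine alone wells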
[16] = biological target: T5, High affinity choline transporter 1 (Homo sapiens, UniProt Q9GZV3); test: human choline transporter blockers, potency – cell-based, 5-point CRC, membrane potential dye, dose response (AID 504840); type: functional
T5 sequence (Q9GZV3 whole entry): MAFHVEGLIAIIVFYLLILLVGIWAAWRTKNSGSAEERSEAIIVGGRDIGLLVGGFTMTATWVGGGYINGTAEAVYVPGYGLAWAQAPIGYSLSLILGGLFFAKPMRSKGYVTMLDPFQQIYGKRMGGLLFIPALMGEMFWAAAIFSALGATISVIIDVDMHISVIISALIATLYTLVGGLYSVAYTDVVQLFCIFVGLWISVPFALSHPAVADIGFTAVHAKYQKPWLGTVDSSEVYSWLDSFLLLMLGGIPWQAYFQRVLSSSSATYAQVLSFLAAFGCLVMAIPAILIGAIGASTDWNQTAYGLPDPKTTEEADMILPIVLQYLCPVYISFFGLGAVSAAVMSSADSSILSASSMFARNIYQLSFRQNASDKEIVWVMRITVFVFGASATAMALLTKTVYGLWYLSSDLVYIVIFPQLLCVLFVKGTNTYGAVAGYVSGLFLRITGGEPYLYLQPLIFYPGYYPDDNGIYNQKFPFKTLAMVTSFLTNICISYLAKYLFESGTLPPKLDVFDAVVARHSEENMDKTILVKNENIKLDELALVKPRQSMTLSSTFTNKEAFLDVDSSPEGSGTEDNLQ

[17] = biological target: T5, High affinity choline transporter 1; test: human choline transporter blockers, potency – cell-based, 10-point CRC, membrane potential dye, dose response (AID 588401); type: functional;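 note: membrane potential dye fluorescence of choline-evoked depolarization via CHT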
[18] = biological target: Potassium voltage-gated channel subfamily KQT member 2 (Rattus norvegicus, UniProt O88943); test: blockers of KCNQ2 channel current – cell-based, automated electrophysiology, set II, rat KCNQ2, dose response (AID 588637); type: functional
[19] = biological target: T6, Methionyl-tRNA synthetase, putative (Trypanosoma brucei brucei, UniProt Q38C91); type: functional, Trypanosoma brucei brucei strain 927/4 GUTat10.1
T6 sequence (Q38C91 whole entry): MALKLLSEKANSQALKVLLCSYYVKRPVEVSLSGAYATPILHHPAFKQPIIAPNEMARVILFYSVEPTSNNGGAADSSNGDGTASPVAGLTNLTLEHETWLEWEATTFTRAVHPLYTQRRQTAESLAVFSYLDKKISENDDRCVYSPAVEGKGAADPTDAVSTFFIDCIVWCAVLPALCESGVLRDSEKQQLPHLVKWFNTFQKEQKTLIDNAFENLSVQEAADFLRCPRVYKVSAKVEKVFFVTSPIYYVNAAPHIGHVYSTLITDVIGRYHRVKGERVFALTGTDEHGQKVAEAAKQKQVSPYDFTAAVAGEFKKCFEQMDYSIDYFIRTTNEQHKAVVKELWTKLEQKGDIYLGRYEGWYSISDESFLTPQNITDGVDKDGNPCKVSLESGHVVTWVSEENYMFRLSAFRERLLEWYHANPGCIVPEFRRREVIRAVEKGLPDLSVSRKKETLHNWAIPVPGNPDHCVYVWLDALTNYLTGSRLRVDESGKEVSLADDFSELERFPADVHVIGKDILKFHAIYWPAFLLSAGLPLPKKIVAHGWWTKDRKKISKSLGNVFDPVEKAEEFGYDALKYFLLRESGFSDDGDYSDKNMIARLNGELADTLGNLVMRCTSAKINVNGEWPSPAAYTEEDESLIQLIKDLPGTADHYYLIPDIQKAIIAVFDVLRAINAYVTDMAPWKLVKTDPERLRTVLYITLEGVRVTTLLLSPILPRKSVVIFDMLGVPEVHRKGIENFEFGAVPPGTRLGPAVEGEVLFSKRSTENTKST

[20] = Counterscreen for inhibitors of Trypanosoma brucei methionyl tRNA synthetase (MetRS): Luminescence-based cell-based high throughput dose response assay to identify compounds that are cytotoxic to Jurkat human T lymphocyte cells.; type: functional
[21] = biological target: T6, Methionyl-tRNA synthetase, putative; type: functional, Trypanosoma brucei brucei strain 927/4 GUTat10.1; remark: listed apart in the source
[22] = biological target: T7, ATP-dependent translocase ABCB1 (Homo sapiens, UniProt P08183); test: inhibition of BCRP-mediated JC-1 efflux – Ig-MXP3 cells, flow cytometry, set 2, dose response (AID 504566); type: functional; conditions: read-out: EC50_MICROM_;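 note: flow cytometry median green fluorescence of retained JC-1 dye; potency of efflux pump inhibition measured as rising substrate retention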
T7 sequence (P08183 whole entry): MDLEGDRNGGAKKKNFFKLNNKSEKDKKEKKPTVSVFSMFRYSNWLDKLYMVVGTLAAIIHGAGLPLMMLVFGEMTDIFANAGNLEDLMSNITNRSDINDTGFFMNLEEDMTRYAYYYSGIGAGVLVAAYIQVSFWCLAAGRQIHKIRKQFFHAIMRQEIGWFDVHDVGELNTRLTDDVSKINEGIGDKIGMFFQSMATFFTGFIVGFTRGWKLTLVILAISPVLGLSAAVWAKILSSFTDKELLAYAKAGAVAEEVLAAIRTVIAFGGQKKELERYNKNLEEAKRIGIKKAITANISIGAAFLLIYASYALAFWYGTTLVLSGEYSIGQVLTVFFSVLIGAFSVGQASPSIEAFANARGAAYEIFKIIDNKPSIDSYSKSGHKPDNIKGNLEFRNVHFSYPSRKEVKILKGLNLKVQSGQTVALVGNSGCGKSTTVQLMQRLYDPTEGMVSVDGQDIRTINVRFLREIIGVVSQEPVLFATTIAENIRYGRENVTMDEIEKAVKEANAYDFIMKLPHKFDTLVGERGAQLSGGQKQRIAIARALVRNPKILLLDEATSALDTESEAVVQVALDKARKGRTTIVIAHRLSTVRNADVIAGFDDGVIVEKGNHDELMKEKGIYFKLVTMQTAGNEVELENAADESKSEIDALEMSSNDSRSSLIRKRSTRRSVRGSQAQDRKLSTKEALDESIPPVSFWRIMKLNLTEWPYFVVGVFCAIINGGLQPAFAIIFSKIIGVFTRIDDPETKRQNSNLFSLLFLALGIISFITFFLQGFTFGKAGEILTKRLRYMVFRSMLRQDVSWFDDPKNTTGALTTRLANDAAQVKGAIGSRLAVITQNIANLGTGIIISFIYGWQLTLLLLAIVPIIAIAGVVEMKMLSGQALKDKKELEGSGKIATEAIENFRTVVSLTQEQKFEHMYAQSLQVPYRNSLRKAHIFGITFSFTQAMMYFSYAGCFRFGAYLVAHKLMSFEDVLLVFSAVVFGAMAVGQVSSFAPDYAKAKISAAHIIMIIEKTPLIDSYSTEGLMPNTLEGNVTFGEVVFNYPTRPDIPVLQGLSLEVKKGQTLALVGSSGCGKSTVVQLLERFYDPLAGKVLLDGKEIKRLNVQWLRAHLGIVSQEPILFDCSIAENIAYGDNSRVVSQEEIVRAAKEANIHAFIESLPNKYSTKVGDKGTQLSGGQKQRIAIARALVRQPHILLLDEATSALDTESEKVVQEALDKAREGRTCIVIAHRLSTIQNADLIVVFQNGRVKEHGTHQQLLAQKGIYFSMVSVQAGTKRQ

[23] = biological target: T7, ATP-dependent translocase ABCB1; test: P-gp JC-1 efflux blockade concentration-response – Jurkat-DNR cells, flow cytometry, set 2, dose response (AID 504569); type: functional; conditions: read-out: EC50_MICROM_;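 note: potency of pump inhibitors that raise cellular JC-1 green fluorescence up to the nicardipine level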
Cytochrome P450 3A4 = Cytochrome P450 3A4 (Homo sapiens, UniProt P08684); conditions: Potency;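 note: confirmatory qHTS run detecting inhibitors and substrates of CYP3A4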
Chain of Cytochrome P450 3A4 (P08684 whole entry): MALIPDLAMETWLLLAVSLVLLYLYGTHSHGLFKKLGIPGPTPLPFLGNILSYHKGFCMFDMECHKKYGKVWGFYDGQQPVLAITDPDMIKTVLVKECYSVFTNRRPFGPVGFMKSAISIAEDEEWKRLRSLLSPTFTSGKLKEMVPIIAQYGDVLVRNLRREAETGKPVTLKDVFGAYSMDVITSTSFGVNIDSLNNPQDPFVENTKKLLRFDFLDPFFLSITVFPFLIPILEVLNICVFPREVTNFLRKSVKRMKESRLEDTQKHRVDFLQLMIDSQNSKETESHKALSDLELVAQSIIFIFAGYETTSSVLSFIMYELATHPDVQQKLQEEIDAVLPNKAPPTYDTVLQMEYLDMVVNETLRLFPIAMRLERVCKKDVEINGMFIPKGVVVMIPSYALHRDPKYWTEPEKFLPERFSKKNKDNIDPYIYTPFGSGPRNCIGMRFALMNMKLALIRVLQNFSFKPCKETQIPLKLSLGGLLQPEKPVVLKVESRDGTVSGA

[24] = biological target: Aryl hydrocarbon receptor (Homo sapiens, UniProt P35869); conditions: Potency;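 note: confirmatory quantitative high-throughput screen measuring activation of the AhR signaling pathway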
Chain of Aryl hydrocarbon receptor (P35869 whole entry): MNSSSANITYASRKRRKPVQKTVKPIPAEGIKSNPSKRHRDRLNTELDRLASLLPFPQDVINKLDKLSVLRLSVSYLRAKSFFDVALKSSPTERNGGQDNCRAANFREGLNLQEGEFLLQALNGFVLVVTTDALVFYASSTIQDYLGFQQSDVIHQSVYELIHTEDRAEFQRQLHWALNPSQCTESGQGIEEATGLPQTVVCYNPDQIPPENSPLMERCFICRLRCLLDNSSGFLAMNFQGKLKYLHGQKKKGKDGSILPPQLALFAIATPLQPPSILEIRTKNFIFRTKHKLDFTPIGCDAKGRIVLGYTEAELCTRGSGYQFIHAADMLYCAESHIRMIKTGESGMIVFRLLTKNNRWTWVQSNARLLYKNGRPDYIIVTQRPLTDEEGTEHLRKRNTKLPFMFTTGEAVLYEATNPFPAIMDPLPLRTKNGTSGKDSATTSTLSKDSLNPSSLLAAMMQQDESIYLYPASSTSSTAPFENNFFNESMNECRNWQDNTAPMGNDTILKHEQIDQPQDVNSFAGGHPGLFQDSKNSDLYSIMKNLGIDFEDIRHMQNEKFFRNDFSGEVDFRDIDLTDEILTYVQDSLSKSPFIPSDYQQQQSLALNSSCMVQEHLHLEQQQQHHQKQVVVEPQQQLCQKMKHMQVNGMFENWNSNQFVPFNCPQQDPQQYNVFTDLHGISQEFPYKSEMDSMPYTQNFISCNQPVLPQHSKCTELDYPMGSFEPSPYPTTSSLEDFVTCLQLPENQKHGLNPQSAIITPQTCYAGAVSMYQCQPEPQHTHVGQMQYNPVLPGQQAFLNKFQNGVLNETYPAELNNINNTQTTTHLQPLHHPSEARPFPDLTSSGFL

For `NC(=O)c1nc(-c2ccco2)nc2c1[nH]c(=O)n2-c1ccc(Cl)c(Cl)c1`, the EC50 [1] was 14 µM (active).
In the case of `CCSC1=N/C(=C\c2ccc3c(c2)OCO3)C(=O)S1`, the IC50 [2] was 25 µM (active), the IC50 [3] was > 100 µM (inactive) and the IC50 (Prothrombin) was 64.3 µM (active).
With `CSc1c(C#N)c(N)nc2sc(C(=O)c3ccccc3)c(N)c12` the EC50 [4] was 95.5 µM (active), the IC50 [5] was 13.2 µM (active) and the IC50 [6] was 13.8 µM (active).
With `CCOc1ccc(NC(=O)CSc2nc(O)c3c[nH]nc3n2)cc1` the IC50 [7] was 8.61 µM (active), the IC50 (Steroidogenic factor 1) was 2.89 µM (active) and the IC50 [8] was 35.9 µM (inactive).
For `NS(=O)(=O)c1ccc(CCNC(=O)c2ccc3nccnc3c2)cc1`, the IC50 [9] was 17.1 µM (active) and the IC50 [10] was 54.2 µM (inactive).
For `CCc1ccc(NC(=O)Cc2cn(C)c3ccccc23)cc1`, the IC50 [11] was > 80 µM (inactive), the IC50 [12] was 57 µM (inactive) and the IC50 [13] was > 80 µM (inactive).
In the case of `CN1CCC2(CC1)N=C(c1ccc(F)cc1)C(=S)N2C(=O)c1ccccc1`, the IC50 [14] was > 100 µM (inactive) and the IC50 [15] was 28.6 µM (active).
For `S=C(c1cn(CCOc2cccc3ccccc23)c2ccccc12)N1CCCC1`, the AC50 (INS1) was 4.3 µM (active), the IC50 [2] was 32.9 µM (active) and the IC50 [3] was > 100 µM (inactive). For the same molecule, the IC50 (Prothrombin) was 41.8 µM (active).
In the case of `OC(CNC1Cc2ccccc2C1)c1ccccc1` (stereo not drawn), the IC50 [16] was 0.479 µM (active) and the IC50 [17] was 0.178 µM (active).
In the case of `O=C(COc1ccc(F)cc1Cl)Nc1ccccc1C(=O)N1CCCCC1`, the IC50 [18] was 0.64 µM (active).
In the case of `COc1ccc(C(=O)NC(C)CCn2cccn2)cc1OC1CCN(C(C)C)CC1` (stereo not drawn), the IC50 [16] was 6.86 µM (active) and the IC50 [17] was 4.22 µM (active).
For `O=C(CCCOc1ccc(Cl)cc1Cl)N/N=C/c1ccccc1`, the IC50 [19] was 110 µM (inactive), the IC50 [20] was 83.3 µM (inactive) and the IC50 [21] was 16 µM (inactive).
For `COc1ccc(-c2cc(N3CCN(C(=O)c4ccoc4)CC3)n3nc(-c4cccc(Cl)c4)cc3n2)cc1`, the EC50 [22] was 1.3 µM (active) and the EC50 [23] was 4.86 µM (active).
With `CC(C)(C)C(=O)C(Oc1ccc(Cl)cc1)n1cncn1` (stereo not drawn) [TRIADIMEFON] the AC50 (Cytochrome P450 3A4) was 0.794 µM (inconclusive) and the AC50 [24] was 70.8 µM (inconclusive).

Reference: ChEMBL document CHEMBL1201862, “PubChem BioAssay data set” (2004)
